{"source": "patent US11596644B2", "about": "“Method for treating post-prandial hypoglycemia” (AVOLYNT, priority 2018, dated 2023)", "format_in_all_cases": "in vivo, rat", "key": {"[1]": {"tested_on": "STZ-induced diabetic rats", "experiment": "Mixed carbohydrate tolerance test in STZ-induced diabetic rats (Example 3)", "experimental": "Study in diabetic rats. Mizagliflozin was tested in a rat model for diabetes and efficacy, as measured by a relative decrease in plasma glucose, was determined using a mixed carbohydrate tolerance test. Diabetic model rats were prepared by intravenous administration of streptozotocin (STZ) to induce diabetes. Seven days after STZ administration, rats were fasted for 16 hours and then given an oral loading dose of 2.0 g/kg of mixed carbohydrate (soluble starch:sucrose:lactose monohydrate=6:3:1). Mizagliflozin, or water as the vehicle control, was then administered as a single oral dose to groups of male rats (n=8/group) at doses of 0.01, 0.03, 0.1, and 0.3 mg/kg. Another control group was given vehicle and consisted of normal male Sprague Dawley rats that were not administered STZ. Voglibose was also administered as a single oral dose to male rats (n=8/group) at dose levels of 0.03, 0.1 and 0.3 mg/kg. Blood samples were collected just prior to loading with mixed carbohydrate and at 0.5, 1, 2, 3, 4, and 6 hours after loading. Plasma glucose concentrations were determined and ΔAUC0-1 h for plasma glucose was calculated."}, "[2]": {"tested_on": "STZ-induced diabetic rats", "experiment": "Oral glucose tolerance test in STZ-induced diabetic rats (Example 4)", "experimental": "Study in diabetic rats using oral glucose tolerance test. Efficacy of mizagliflozin was tested in a rat model for diabetes using an oral glucose tolerance test (OGTT). Diabetic model rats were prepared by intravenous administration of STZ to induce diabetes. Seven days after STZ administration, rats were fasted for 16 hours and then given an oral loading dose of 2.0 g/kg of glucose. Mizagliflozin, or water as the vehicle control, was then administered as a single oral dose to groups of male rats (n=8/group) at doses of 0.03, 0.1, 0.3, and 1 mg/kg. Another control group was given vehicle and consisted of normal male Sprague Dawley rats that were not administrated STZ. Voglibose was also administered as a single oral dose to male rats (n=8/group) at dose levels of 0.1, 0.3 and 1 mg/kg. Blood samples were collected just prior to loading with mixed carbohydrate and at 0.5, 1, 2, 3, 4, and 6 hours after loading. Plasma glucose concentrations were determined and ΔAUC0-1 h for plasma glucose was calculated."}, "[3]": {"tested_on": "STZ-induced diabetic rats", "experiment": "OGTT in STZ-induced diabetic rats (Example 8)", "conditions": "for Plasma glucose 0 hr: before dosing; for Plasma glucose 0 hr / Plasma glucose 0.5 hr / Plasma glucose 1 hr / Plasma glucose 2 hr / Plasma glucose 3 hr / ΔAUC (0-1) / ΔAUC (0-1) (% of Control): glucose 2 g/kg, mean ± S.E.M.", "experimental": "Study in diabetic rats with glucose. Diabetic rats, induced by intravenous injection of streptozotocin (STZ; 40 mg/kg), were used to determining plasma glucose concentration (PG) 1 hr after oral glucose tolerance test (OGTT). […] Blood was collected via the caudal artery immediately before dosing and 0.5, 1, 2, and 3 hr after dosing. The glucose concentration measurement in plasma used Glucose CII-Test Wako kit (Wako Pure Chemicals Industries, Ltd., Osaka, Japan). The variables used for efficacy assessment were the measurement values of the plasma glucose concentration and the area under the curve for plasma glucose concentration through 1 hr after loading (ΔAUC0-1 hr). The ΔAUC0-1 hr for plasma glucose was calculated based on the trapezoid method using the change of plasma glucose concentrations from pre-value (0 hr)."}}, "note": "Marks after values point to notes of the source that are not given here.", "data": [{"molecule": "Cc1cc(OCCCNCC(C)(C)C(N)=O)ccc1Cc1c(O[C@@H]2O[C@H](CO)[C@@H](O)[C@H](O)[C@H]2O)n[nH]c1C(C)C", "note": "[mizagliflozin, 3-(3-{4-[3-(β-D-glucopyranosyloxy)-5-isopropyl-1H-pyrazol-4-ylmethyl-]-3-methylphenoxy}propylamino)-2,2-dimethylpropionamide]", "values": [{"measurement": "ED50", "setting": "[1]; Rattus norvegicus, read-out: ED50 calculated from mean ΔAUC0-1 h (% of control), mixed carbohydrate 2.0 g/kg, single oral dose", "result": 0.096, "unit": "mg/kg"}, {"measurement": "ΔAUC0-1 h of plasma glucose versus vehicle control", "setting": "[1]; mixed carbohydrate 2.0 g/kg", "result": "significantly lowered"}, {"measurement": "ED50", "setting": "[2]; Rattus norvegicus, read-out: ED50 calculated from mean ΔAUC0-1 h (% of control), glucose 2.0 g/kg, single oral dose", "result": 0.099, "unit": "mg/kg"}, {"measurement": "ΔAUC0-1 h of plasma glucose versus vehicle control", "setting": "[2]; glucose 2.0 g/kg", "result": "significantly lowered"}, {"measurement": "Plasma glucose 0 hr", "setting": "[3]; 0.03 mg/kg oral", "result": "128 ± 10", "unit": "mg/dL"}, {"measurement": "Plasma glucose 0.5 hr", "setting": "[3]; 0.03 mg/kg oral", "result": "356 ± 25", "unit": "mg/dL"}, {"measurement": "Plasma glucose 1 hr", "setting": "[3]; 0.03 mg/kg oral", "result": "371 ± 33", "unit": "mg/dL"}, {"measurement": "Plasma glucose 2 hr", "setting": "[3]; 0.03 mg/kg oral", "result": "172 ± 29", "unit": "mg/dL"}, {"measurement": "Plasma glucose 3 hr", "setting": "[3]; 0.03 mg/kg oral", "result": "91 ± 12", "unit": "mg/dL"}, {"measurement": "ΔAUC (0-1)", "setting": "[3]; 0.03 mg/kg oral", "result": "174 ± 17", "unit": "mg·h/dL"}, {"measurement": "ΔAUC (0-1) (% of Control)", "setting": "[3]; 0.03 mg/kg oral", "result": "90 ± 9 % of Control"}, {"measurement": "Plasma glucose 0 hr", "setting": "[3]; 0.1 mg/kg oral", "result": "120 ± 12", "unit": "mg/dL"}, {"measurement": "Plasma glucose 0.5 hr", "setting": "[3]; 0.1 mg/kg oral", "result": "262 ± 27^y mg/dL"}, {"measurement": "Plasma glucose 1 hr", "setting": "[3]; 0.1 mg/kg oral", "result": "305 ± 43", "unit": "mg/dL"}, {"measurement": "Plasma glucose 2 hr", "setting": "[3]; 0.1 mg/kg oral", "result": "238 ± 53", "unit": "mg/dL"}, {"measurement": "Plasma glucose 3 hr", "setting": "[3]; 0.1 mg/kg oral", "result": "137 ± 26", "unit": "mg/dL"}, {"measurement": "ΔAUC (0-1)", "setting": "[3]; 0.1 mg/kg oral", "result": "117 ± 18^x mg · dL^−1 · hr"}, {"measurement": "ΔAUC (0-1) (% of Control)", "setting": "[3]; 0.1 mg/kg oral", "result": "60 ± 9^x % of Control"}, {"measurement": "PG elevation after glucose administration", "setting": "[3]; 0.03 and 0.1 mg/kg oral, OGTT 2 g/kg", "result": "inhibited PG elevation after glucose administration dose dependently"}]}]}
